Reference: publication PMC6199309, “A therapeutic approach to pantothenate kinase associated neurodegeneration” (Nature Communications, 2018)
pKd: −log10 of the molar value.

Experiments:
Format in all cases: binding
MAP4K5 = biological target: T1, MAP4K5 (Homo sapiens, UniProt Q9Y4K4); assay: KINOMEscan; details: read-out: %Ctrl @ 10000nM
T1 construct: purchased DiscoverX KINOMEscan

SNRK = biological target: T2, SNRK (Homo sapiens, UniProt Q9NRH2); assay: KINOMEscan; details: read-out: %Ctrl @ 10000nM
T2 construct: purchased DiscoverX KINOMEscan

HIPK2 = biological target: T3, HIPK2 (Homo sapiens, UniProt Q9H2X6); assay: KINOMEscan; details: read-out: %Ctrl @ 10000nM
T3 construct: purchased DiscoverX KINOMEscan

MRCKA = biological target: T4, MRCKA (Homo sapiens, UniProt Q5VT25); assay: KINOMEscan; details: read-out: %Ctrl @ 10000nM
T4 construct: purchased DiscoverX KINOMEscan

PRP4 = biological target: T5, PRP4 (Homo sapiens, UniProt Q13523); assay: KINOMEscan; details: read-out: %Ctrl @ 10000nM
T5 construct: purchased DiscoverX KINOMEscan

SRMS = biological target: T6, SRMS (Homo sapiens, UniProt Q9H3Y6); assay: KINOMEscan; details: read-out: %Ctrl @ 10000nM
T6 construct: purchased DiscoverX KINOMEscan
T6 sequence (Q9H3Y6 whole entry): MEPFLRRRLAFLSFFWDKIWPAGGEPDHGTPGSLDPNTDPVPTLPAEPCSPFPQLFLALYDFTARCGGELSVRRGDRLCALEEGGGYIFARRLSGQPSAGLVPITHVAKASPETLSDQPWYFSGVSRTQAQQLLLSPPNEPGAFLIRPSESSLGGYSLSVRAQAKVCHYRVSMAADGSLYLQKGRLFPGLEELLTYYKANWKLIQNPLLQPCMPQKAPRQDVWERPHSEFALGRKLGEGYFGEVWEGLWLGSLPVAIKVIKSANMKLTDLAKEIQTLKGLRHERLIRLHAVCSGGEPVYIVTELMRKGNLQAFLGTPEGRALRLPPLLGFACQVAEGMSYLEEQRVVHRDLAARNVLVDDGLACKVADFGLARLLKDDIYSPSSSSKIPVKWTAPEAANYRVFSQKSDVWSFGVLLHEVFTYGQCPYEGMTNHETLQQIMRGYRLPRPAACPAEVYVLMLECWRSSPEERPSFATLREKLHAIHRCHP

CSNK1A1 = biological target: T7, CSNK1A1 (Homo sapiens, UniProt P48729); assay: KINOMEscan; details: read-out: %Ctrl @ 10000nM
T7 construct: purchased DiscoverX KINOMEscan

RIOK1 = biological target: T8, RIOK1 (Homo sapiens, UniProt Q9BRS2); assay: KINOMEscan; details: read-out: %Ctrl @ 10000nM
T8 construct: purchased DiscoverX KINOMEscan

YES = biological target: T9, YES (Homo sapiens, UniProt P07947); assay: KINOMEscan; details: read-out: %Ctrl @ 10000nM
T9 construct: purchased DiscoverX scanMAX; host or cells: E. coli BL21-derived host (T7 phage) or HEK-293
T9 sequence (P07947 whole entry): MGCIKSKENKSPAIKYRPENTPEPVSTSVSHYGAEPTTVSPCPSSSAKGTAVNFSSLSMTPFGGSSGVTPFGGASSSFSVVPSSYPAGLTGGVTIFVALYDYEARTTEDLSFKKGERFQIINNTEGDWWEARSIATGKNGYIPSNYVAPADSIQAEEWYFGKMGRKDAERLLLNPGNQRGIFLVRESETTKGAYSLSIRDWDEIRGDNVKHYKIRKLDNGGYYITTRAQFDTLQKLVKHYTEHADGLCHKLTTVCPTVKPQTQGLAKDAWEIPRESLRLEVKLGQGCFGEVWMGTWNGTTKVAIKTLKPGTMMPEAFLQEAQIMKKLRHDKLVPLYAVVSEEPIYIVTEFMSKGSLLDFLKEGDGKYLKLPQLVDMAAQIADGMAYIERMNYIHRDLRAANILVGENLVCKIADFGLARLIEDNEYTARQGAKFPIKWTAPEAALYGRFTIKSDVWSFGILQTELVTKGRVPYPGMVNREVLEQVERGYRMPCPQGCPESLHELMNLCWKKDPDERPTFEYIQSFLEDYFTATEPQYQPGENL

PIM1 = biological target: T10, PIM1 (Homo sapiens, UniProt P11309); assay: KINOMEscan; details: read-out: %Ctrl @ 10000nM
T10 construct: purchased DiscoverX KINOMEscan

ADCK4 = biological target: T11, ADCK4 (Homo sapiens, UniProt Q96D53); assay: KINOMEscan; details: read-out: %Ctrl @ 10000nM
T11 construct: purchased DiscoverX KINOMEscan

PDGFRA = biological target: T12, PDGFRA (Homo sapiens, UniProt P16234); assay: KINOMEscan; details: read-out: %Ctrl @ 10000nM
T12 construct: purchased DiscoverX KINOMEscan

CSNK1G3 = biological target: T13, CSNK1G3 (Homo sapiens, UniProt Q9Y6M4); assay: KINOMEscan; details: read-out: %Ctrl @ 10000nM
T13 construct: purchased DiscoverX KINOMEscan

NEK5 = biological target: T14, NEK5 (Homo sapiens, UniProt Q6P3R8); assay: KINOMEscan; details: read-out: %Ctrl @ 10000nM
T14 construct: purchased DiscoverX KINOMEscan

PCTK3 = biological target: T15, PCTK3 (Homo sapiens, UniProt Q07002); assay: KINOMEscan; details: read-out: %Ctrl @ 10000nM
T15 construct: purchased DiscoverX KINOMEscan
T15 sequence (Q07002 whole entry): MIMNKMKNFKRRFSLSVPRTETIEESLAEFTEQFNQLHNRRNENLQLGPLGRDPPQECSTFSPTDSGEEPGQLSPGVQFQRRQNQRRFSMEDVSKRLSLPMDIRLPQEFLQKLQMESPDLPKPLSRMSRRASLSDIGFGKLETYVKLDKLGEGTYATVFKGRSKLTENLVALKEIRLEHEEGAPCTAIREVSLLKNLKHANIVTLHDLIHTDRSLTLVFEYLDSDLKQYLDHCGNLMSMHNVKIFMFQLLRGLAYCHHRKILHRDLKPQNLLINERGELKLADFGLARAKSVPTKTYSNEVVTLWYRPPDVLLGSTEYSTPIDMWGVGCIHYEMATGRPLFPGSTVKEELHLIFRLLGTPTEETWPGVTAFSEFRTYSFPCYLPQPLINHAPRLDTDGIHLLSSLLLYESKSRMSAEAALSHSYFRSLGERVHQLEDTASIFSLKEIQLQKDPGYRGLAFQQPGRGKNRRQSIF

PHKG2 = biological target: T16, PHKG2 (Homo sapiens, UniProt P15735); assay: KINOMEscan; details: read-out: %Ctrl @ 10000nM
T16 construct: purchased DiscoverX KINOMEscan

PRKCD = biological target: T17, PRKCD (Homo sapiens, UniProt Q05655); assay: KINOMEscan; details: read-out: %Ctrl @ 10000nM
T17 construct: purchased DiscoverX KINOMEscan

GSK3B = biological target: T18, GSK3B (Homo sapiens, UniProt P49841); assay: KINOMEscan; details: read-out: %Ctrl @ 10000nM
T18 construct: purchased DiscoverX KINOMEscan
T18 sequence (P49841 whole entry): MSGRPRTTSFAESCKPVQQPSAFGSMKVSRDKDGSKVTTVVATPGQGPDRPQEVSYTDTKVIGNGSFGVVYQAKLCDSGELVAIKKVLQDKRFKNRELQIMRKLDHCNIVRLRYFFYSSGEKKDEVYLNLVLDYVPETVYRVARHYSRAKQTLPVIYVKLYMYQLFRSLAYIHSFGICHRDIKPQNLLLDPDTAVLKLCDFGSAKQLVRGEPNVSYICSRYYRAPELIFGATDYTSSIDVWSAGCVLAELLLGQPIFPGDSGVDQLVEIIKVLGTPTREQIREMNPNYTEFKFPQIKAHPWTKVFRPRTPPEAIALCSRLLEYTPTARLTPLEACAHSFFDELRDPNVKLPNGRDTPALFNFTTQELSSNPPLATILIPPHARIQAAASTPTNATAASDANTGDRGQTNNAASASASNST

NLK = biological target: T19, NLK (Homo sapiens, UniProt Q9UBE8); assay: KINOMEscan; details: read-out: %Ctrl @ 10000nM
T19 construct: purchased DiscoverX KINOMEscan

NEK3 = biological target: T20, NEK3 (Homo sapiens, UniProt P51956); assay: KINOMEscan; details: read-out: %Ctrl @ 10000nM
T20 construct: purchased DiscoverX KINOMEscan

IGF1R = biological target: T21, IGF1R (Homo sapiens, UniProt P08069); assay: KINOMEscan; details: read-out: %Ctrl @ 10000nM
T21 construct: purchased DiscoverX KINOMEscan

PIK3CA(M1043I) = biological target: T22, PIK3CA(M1043I) (Homo sapiens, UniProt P42336, M1043I); assay: KINOMEscan; details: read-out: %Ctrl @ 10000nM
T22 construct: purchased DiscoverX KINOMEscan

HCK = biological target: T23, HCK (Homo sapiens, UniProt P08631); assay: KINOMEscan; details: read-out: %Ctrl @ 10000nM
T23 construct: purchased DiscoverX KINOMEscan
T23 sequence (P08631 whole entry): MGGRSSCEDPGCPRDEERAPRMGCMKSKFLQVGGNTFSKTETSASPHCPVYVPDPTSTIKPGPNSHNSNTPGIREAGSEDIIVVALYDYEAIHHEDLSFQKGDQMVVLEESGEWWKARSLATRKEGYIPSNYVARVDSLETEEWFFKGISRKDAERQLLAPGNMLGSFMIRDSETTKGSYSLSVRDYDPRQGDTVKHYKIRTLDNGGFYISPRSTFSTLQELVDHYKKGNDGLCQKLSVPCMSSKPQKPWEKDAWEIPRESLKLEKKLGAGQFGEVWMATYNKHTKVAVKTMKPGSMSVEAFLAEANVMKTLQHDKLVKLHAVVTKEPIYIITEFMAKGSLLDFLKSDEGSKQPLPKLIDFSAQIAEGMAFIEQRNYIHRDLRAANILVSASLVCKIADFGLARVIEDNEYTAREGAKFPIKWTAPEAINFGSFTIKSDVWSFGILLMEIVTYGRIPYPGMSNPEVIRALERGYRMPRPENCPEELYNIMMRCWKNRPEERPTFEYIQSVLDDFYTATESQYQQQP

ASK2 = biological target: T24, ASK2 (Homo sapiens, UniProt O95382); assay: KINOMEscan; details: read-out: %Ctrl @ 10000nM
T24 construct: purchased DiscoverX KINOMEscan

p38-gamma = biological target: T25, p38-gamma (Homo sapiens, UniProt P53778); assay: KINOMEscan; details: read-out: %Ctrl @ 10000nM
T25 construct: purchased DiscoverX KINOMEscan
T25 sequence (P53778 whole entry): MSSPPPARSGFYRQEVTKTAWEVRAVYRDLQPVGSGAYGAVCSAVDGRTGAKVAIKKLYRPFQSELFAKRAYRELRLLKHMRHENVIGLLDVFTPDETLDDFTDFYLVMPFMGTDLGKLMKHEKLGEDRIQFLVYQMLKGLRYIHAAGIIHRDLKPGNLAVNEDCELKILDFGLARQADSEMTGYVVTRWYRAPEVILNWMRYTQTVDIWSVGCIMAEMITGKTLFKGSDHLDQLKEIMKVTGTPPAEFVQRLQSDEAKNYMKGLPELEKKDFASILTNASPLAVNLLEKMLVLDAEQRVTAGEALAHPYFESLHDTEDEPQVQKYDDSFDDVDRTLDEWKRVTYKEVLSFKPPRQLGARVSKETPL

STK35 = biological target: T26, STK35 (Homo sapiens, UniProt Q8TDR2); assay: KINOMEscan KdELECT
T26 construct: DNA tag for qPCR (T7 phage fusion or DNA label); purchased DiscoverX KdELECT; host or cells: E. coli BL21-derived (T7 phage) or HEK-293
T26 sequence (Q8TDR2 whole entry, the tested form may be a part): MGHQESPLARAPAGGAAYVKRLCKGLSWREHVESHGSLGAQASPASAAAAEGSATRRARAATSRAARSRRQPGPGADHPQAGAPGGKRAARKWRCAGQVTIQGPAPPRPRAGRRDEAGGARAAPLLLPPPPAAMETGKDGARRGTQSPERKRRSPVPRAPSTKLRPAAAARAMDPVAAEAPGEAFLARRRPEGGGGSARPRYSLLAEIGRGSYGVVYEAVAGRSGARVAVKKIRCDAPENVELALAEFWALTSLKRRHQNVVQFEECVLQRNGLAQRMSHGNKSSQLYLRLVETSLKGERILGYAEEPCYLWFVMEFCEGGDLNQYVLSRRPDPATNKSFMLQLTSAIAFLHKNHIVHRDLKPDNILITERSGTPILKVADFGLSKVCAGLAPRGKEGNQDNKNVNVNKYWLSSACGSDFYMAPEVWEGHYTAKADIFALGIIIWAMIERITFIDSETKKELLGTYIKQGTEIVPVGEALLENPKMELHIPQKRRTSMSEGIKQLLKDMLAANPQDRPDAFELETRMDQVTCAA

MTOR = biological target: T27, MTOR (Homo sapiens, UniProt P42345); assay: KINOMEscan; details: read-out: %Ctrl @ 10000nM
T27 construct: purchased DiscoverX KINOMEscan

DAPK2 = biological target: T28, DAPK2 (Homo sapiens, UniProt Q9UIK4); assay: KINOMEscan; details: read-out: %Ctrl @ 10000nM
T28 construct: purchased DiscoverX KINOMEscan
T28 sequence (Q9UIK4 whole entry): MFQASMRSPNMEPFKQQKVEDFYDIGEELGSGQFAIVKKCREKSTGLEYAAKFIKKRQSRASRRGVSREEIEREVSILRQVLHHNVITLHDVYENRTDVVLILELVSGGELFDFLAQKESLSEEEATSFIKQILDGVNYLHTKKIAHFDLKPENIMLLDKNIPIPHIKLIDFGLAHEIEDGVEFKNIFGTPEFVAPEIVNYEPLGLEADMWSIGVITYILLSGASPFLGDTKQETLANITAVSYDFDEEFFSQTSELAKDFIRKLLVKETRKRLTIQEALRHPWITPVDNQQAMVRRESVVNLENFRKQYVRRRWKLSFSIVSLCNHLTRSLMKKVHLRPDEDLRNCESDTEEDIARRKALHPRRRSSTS

PLK4 = biological target: T29, PLK4 (Homo sapiens, UniProt O00444); assay: KINOMEscan; details: read-out: %Ctrl @ 10000nM
T29 construct: purchased DiscoverX KINOMEscan

AKT2 = biological target: T30, AKT2 (Homo sapiens, UniProt P31751); assay: KINOMEscan; details: read-out: %Ctrl @ 10000nM
T30 construct: purchased DiscoverX KINOMEscan

[1] = biological target: T31, ABL1(M351T)-phosphorylated (Homo sapiens, UniProt P00519, M351T); assay: KINOMEscan; details: read-out: %Ctrl @ 10000nM
T31 construct: purchased DiscoverX KINOMEscan

MET(Y1235D) = biological target: T32, MET(Y1235D) (Homo sapiens, UniProt P08581, Y1235D); assay: KINOMEscan; details: read-out: %Ctrl @ 10000nM
T32 construct: purchased DiscoverX KINOMEscan

ROCK2 = biological target: T33, ROCK2 (Homo sapiens, UniProt O75116); assay: KINOMEscan; details: read-out: %Ctrl @ 10000nM
T33 construct: purchased DiscoverX KINOMEscan

CDK4-cyclinD1 = biological target: T34, CDK4-cyclinD1 (Homo sapiens, UniProt P11802); assay: KINOMEscan; details: read-out: %Ctrl @ 10000nM
T34 construct: purchased DiscoverX KINOMEscan

PIK3CB = biological target: T35, PIK3CB (Homo sapiens, UniProt P42338); assay: KINOMEscan; details: read-out: %Ctrl @ 10000nM
T35 construct: purchased DiscoverX KINOMEscan

TAOK2 = biological target: T36, TAOK2 (Homo sapiens, UniProt Q9UL54); assay: KINOMEscan; details: read-out: %Ctrl @ 10000nM
T36 construct: purchased DiscoverX KINOMEscan

TRKC = biological target: T37, TRKC (Homo sapiens, UniProt Q16288); assay: KINOMEscan; details: read-out: %Ctrl @ 10000nM
T37 construct: purchased DiscoverX KINOMEscan

[2] = biological target: T38, RPS6KA5(Kin.Dom.2-C-terminal) (Homo sapiens, UniProt O75582); assay: KINOMEscan; details: read-out: %Ctrl @ 10000nM
T38 construct: RPS6KA5(Kin.Dom.2-C-terminal); purchased DiscoverX KINOMEscan
T38 sequence (O75582 388-802 limits assumed): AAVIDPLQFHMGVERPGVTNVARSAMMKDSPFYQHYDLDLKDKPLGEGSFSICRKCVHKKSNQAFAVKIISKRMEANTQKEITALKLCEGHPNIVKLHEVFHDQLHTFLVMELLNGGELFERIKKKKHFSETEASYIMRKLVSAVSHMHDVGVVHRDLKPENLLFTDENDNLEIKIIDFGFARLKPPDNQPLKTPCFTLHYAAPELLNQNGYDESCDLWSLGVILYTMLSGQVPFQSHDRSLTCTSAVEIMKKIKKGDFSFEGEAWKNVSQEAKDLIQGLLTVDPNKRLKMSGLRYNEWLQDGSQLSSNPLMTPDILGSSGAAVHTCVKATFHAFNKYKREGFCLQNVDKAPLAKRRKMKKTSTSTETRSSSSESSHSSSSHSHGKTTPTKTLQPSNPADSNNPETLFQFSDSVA

p38-alpha = biological target: T39, p38-alpha (Homo sapiens, UniProt Q16539); assay: KINOMEscan; details: read-out: %Ctrl @ 10000nM
T39 construct: purchased DiscoverX KINOMEscan

CDK8 = biological target: T40, CDK8 (Homo sapiens, UniProt P49336); assay: KINOMEscan; details: read-out: %Ctrl @ 10000nM
T40 construct: purchased DiscoverX KINOMEscan

PRKD1 = biological target: T41, PRKD1 (Homo sapiens, UniProt Q15139); assay: KINOMEscan; details: read-out: %Ctrl @ 10000nM
T41 construct: purchased DiscoverX KINOMEscan

T1 sequence (Q9Y4K4 whole entry): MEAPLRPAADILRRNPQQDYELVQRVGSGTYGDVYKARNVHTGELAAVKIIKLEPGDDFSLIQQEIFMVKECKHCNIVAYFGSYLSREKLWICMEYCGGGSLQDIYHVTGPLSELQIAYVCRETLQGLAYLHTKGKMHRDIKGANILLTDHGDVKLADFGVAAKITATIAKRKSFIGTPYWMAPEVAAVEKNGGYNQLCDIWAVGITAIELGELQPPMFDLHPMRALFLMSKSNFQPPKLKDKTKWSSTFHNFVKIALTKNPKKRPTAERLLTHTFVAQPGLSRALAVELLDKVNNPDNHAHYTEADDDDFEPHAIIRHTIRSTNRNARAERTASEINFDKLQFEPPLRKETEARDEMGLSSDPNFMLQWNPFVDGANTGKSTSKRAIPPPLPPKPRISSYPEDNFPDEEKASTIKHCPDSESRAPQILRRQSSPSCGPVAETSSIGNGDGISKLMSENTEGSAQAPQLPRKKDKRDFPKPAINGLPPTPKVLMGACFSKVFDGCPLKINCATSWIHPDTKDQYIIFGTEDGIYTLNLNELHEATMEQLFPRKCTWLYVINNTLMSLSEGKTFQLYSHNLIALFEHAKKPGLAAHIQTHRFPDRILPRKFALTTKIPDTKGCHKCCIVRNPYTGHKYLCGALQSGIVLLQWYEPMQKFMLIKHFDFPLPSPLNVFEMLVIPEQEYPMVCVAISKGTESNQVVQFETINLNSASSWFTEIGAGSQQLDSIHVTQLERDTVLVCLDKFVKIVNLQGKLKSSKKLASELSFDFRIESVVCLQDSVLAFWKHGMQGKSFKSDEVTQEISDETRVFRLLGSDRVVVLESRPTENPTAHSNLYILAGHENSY

CC(C)c1ccc(CC(=O)N2CCN(c3ccc(C#N)nn3)CC2)cc1 [PZ-2891, 6-(4-(2-(4-isopropylphenyl)acetyl)piperazin-1-yl)pyridazine-3-carbonitrile]
remaining binding at 10 µM (MAP4K5): 100% | remaining binding at 10 µM (SNRK): 85% | remaining binding at 10 µM (HIPK2): 100% | remaining binding at 10 µM (MRCKA): 92% | remaining binding at 10 µM (PRP4): 86% | remaining binding at 10 µM (SRMS): 72% | remaining binding at 10 µM (CSNK1A1): 66% | remaining binding at 10 µM (RIOK1): 100% | remaining binding at 10 µM (YES): 90% | remaining binding at 10 µM (PIM1): 93% | remaining binding at 10 µM (ADCK4): 92% | remaining binding at 10 µM (PDGFRA): 70% | remaining binding at 10 µM (CSNK1G3): 80% | remaining binding at 10 µM (NEK5): 100% | remaining binding at 10 µM (PCTK3): 92% | remaining binding at 10 µM (PHKG2): 100% | remaining binding at 10 µM (PRKCD): 89% | remaining binding at 10 µM (GSK3B): 74% | remaining binding at 10 µM (NLK): 94% | remaining binding at 10 µM (NEK3): 69% | remaining binding at 10 µM (IGF1R): 91% | remaining binding at 10 µM (PIK3CA(M1043I)): 74% | remaining binding at 10 µM (HCK): 79% | remaining binding at 10 µM (ASK2): 83% | remaining binding at 10 µM (p38-gamma): 58% | pKd (STK35; STK35): < 4.52 | pKd (STK35; STK35 Replicate ID = 1): < 4.52 | pKd (STK35; STK35 Replicate ID = 2): < 4.52 | remaining binding at 10 µM (MTOR): 68% | remaining binding at 10 µM (DAPK2): 95% | remaining binding at 10 µM (PLK4): 88% | remaining binding at 10 µM (AKT2): 85% | remaining binding at 10 µM [1]: 96% | remaining binding at 10 µM (MET(Y1235D)): 66% | remaining binding at 10 µM (ROCK2): 100% | remaining binding at 10 µM (CDK4-cyclinD1): 100% | remaining binding at 10 µM (PIK3CB): 65% | remaining binding at 10 µM (TAOK2): 99% | remaining binding at 10 µM (TRKC): 100% | remaining binding at 10 µM [2]: 96% | remaining binding at 10 µM (p38-alpha): 100% | remaining binding at 10 µM (CDK8): 83% | remaining binding at 10 µM (PRKD1): 89%
